# Test results as given in PMC5749684, “Tetrahydrocarbazoles are a novel class of potent P-type ATPase inhibitors with antifungal activity” (PLoS ONE, 2018).
# Assays:
# [1] = test system: Candida glabrata ATCC 90030; assay: Fungal growth inhibition, C. glabrata ATCC 90030; assay type: cell-based; conditions: Nakaseomyces glabratus, ATCC90030; MIC defined as 50% growth inhibition, 24 h, n = 3–6
# Description: (§1) Fungal isolates were purchased from American Type Culture Collection, except for C. glabrata strain Cg003, which was kindly provided by Julius Subik, Comenius University in Bratislava, Slovak Republic. Cg003 is a clinical isolate, characterized to be resistant to fluconazole and itraconazole due to overexpression of the multidrug resistance efflux pumps Cdr1p and Cdr2p. Saccharomyces cerevisiae (ATCC 9763), Candida albicans (ATCC 90028), Candida albicans (SC5314), Candida glabrata (ATCC 90030), Candida glabrata (Cg003) and Candida krusei (ATCC 6258) were grown in Sabouraud broth (40 g/L D-glucose, 10 g/L peptone, pH 5.6) or YPD (10 g/L yeast extract, 20 g/L Bacto-peptone, 20 g/L glucose) medium to mid log phase, aliquoted into 20% (v/v) glycerol and cryopreserved as stocks at -80°C. For each growth assay, cells from these stocks were diluted in sterile water to OD600 = 0.025, which corresponds to a final starting inoculum of 0.5–2.5 x 10^5 CFU/mL. Growth assays were carried out by pipetting 3 μL compound dissolved in DMSO, 100 μL cell suspension and 97 μL 2 x RPMI media (20.8 g/L RPMI-1640 (Sigma-Aldrich catalog number R6504) 330 mM MOPS, 36 g/L glucose) into a microtiter plate and incubating for 24 h at 34°C, followed by OD measurement at 490 nm. The minimum inhibitory concentration (MIC) was defined as 50% growth inhibition of the microorganism as this measurement best represented the antifungal activity of the compounds. Standard errors were typically below 5%.
# Candida glabrata Cg003 = assay: microbe, parasite or virus in culture; assay type: cell-based; conditions: Nakaseomyces glabratus, CG003, 24 h, read-out: Growth inhibition MIC Candida glabrata Cg003
# Procedure: as §1, with “Cg003 is a clinical isolate, characterized to be resistant to fluconazole and itraconazole due to overexpression of the multidrug resistance efflux pumps Cdr1p and Cdr2p.” left out, “nm.” for “nm. The minimum inhibitory concentration (MIC) was defined as 50% growth inhibition of the microorganism as this measurement best represented the antifungal activity of the compounds. Standard errors were typically below 5%.”
# HepG2 cells = assay: Hep G2 viability assay (XTT); assay type: cell-based, human; conditions: HepG2 proliferation, 72 h, XTT
# Procedure: In each well of a 96 well tissue culture plate (Greiner, catalog number GR-655180) 10,000 human hepatocyte HepG2 cells (Sigma-Aldrich, catalog number 85011430) were plated in 200 μL growth media (EMEM (Sigma-Aldrich, catalog number M2279), 2 mM L-Glutamine (Biological Industries, catalog number 03-020-1B), 1% non-essential amino acids (Biosera, catalog number XC-E1154/100), 10% fetal bovine serum (Biological Industries, catalog number BI-04-007-1A)), and incubated overnight at 37°C and 5% CO2. The following day, fresh growth media plus 2 μL compound in DMSO was added. The plate was incubated for a further 72 h at 37°C and 5% CO2. The media was replaced with 100 μL freshly prepared 0.5 mg/mL XTT sodium salt solution (Sigma-Aldrich, catalog number X4251) in RPMI-1640 (Sigma-Aldrich, catalog number R7509) with 3.83 μg/mL phenazine methosulfate (Sigma-Aldrich, catalog number P9625) and incubated 2–3 h at 37°C and 5% CO2. The color reaction was measured on a Victor X5 plate reader (Perkin-Elmer) at OD450, and the half maximal effective concentration (EC50) was calculated indicating the potency of tetrahydrocarbazole derivatives to inhibit HepG2 cell growth. Tamoxifen (Sigma-Aldrich, catalog number 85256) was used as a positive control compound while DMSO served as a negative control.
# [2] = test system: C. albicans (SC5314) cells; assay: Time-kill assay; assay type: cell-based, Candida albicans; conditions: AMB 0.54 μM, VRC 2.8 μM, 6 and 8 20 μM
# Procedure: C. albicans (SC5314) cells (1 x 10^5 CFU/mL) were incubated in 10 mL RPMI-1640 media at 30°C with gentle agitation (150 rpm) in the presence of amphotericin B (0.5 μM), voriconazole (2.8 μM) or tetrahydrocarbazole compound (20 μM). At the indicated time points (0, 3, 6, and 24 h), a 100 μL aliquot was removed, serially diluted (10 fold) in saline (0.9% NaCl), and 30 μL aliquots were spread on YPD agar. CFU were counted after incubation at 30°C for 48 h. C. albicans cells treated with DMSO (1%, v/v) served as a control. 50 CFU/mL was selected as the lower limit of quantitation.
# Candida albicans SC5314 = assay: Fungal growth inhibition, C. albicans SC5314; assay type: cell-based; conditions: MIC defined as 50% growth inhibition, 24 h, n = 3–6
# Description: as §1
# Candida krusei ATCC 6258 = assay: Fungal growth inhibition, C. krusei; assay type: cell-based; conditions: Pichia kudriavzevii, ATCC6258; MIC defined as 50% growth inhibition, 24 h, n = 3–6
# Description: as §1
# C. albicans cells = assay: Post-antifungal effect determination; assay type: cell-based, Candida albicans; conditions: 1 h exposure of C. albicans; AMB 0.54 μM, VRC 2.8 μM, 6 and 8 20 μM
# Procedure: The post-antifungal effect (PAFE) of antifungal drugs on C. albicans was determined as described by others, with modifications. Briefly, 2 × 10^6 CFU/mL C. albicans cells were incubated in 1 mL RPMI-1640 media for 1 h at 30°C with gentle agitation in the presence of amphotericin B (0.54 μM), voriconazole (2.8 μM) or tetrahydrocarbazole compound (20 μM). Cells were subsequently washed in RPMI media 3 times by centrifugation (3 minutes, 5,000 x g) and finally re-suspended in 1 mL fresh RPMI medium and incubated at 30°C for 24 h. At various time intervals, a 100 μL aliquot was removed, serially diluted (10-fold) in saline (0.9% NaCl), and 30 μL aliquots were spread on YPD agar. The agar plates were incubated at 30°C for 48 h and the number of CFU/mL of culture was determined. C. albicans cells treated with DMSO (1%, v/v) served as a control. The number of CFU/mL obtained at specified time intervals was plotted against time (h) following compound removal. An increase in the CFU/mL of culture signifies growth and multiplication of yeast cells. The duration required for the antifungal drug-treated cells to recover from the inhibitory effect of the drug as indicated by an increase in CFU/mL of culture is defined as the PAFE.
# [3] = test system: Saccharomyces cerevisiae ATCC 9763; assay: Fungal growth inhibition, S. cerevisiae ATCC 9763; assay type: cell-based; conditions: ATCC9763, MIC defined as 50% growth inhibition, 24 h, n = 3–6
# Description: as §1
# [4] = test system: HEK293 cells expressing the familial Alzheimer’s disease (FAD)-linked presenilin 1 mutation; set-up: method as in PMID 25514752; conditions: HEK293 cells expressing FAD-linked presenilin 1 mutation; cited from earlier work
# Candida albicans = assay: Fungal growth inhibition, C. albicans (library hits, Tables A and B); assay type: cell-based; conditions: ATCC90028, read-out: Growth inhibition MIC Candida albicans
# Procedure: (§2) The compound libraries were purchased from Enamine Ltd, Ukraine and Chembridge Corp, USA. Library screening was performed in 96 well plates format and each compound was screened in the ATP hydrolysis assay at a final concentration of 20 μM. DMSO was used to determine the maximal ATPase activity and a blank with ATP in absence of Pma1 protein was used to determine the level of spontaneous ATP hydrolysis and used to determine background level. The percentage of compound inhibition was evaluated by subtracting the blank from each data point and normalizing to maximal ATP hydrolysis activity.
# as §1, with “Cg003 is a clinical isolate, characterized to be resistant to fluconazole and itraconazole due to overexpression of the multidrug resistance efflux pumps Cdr1p and Cdr2p.” left out, “nm.” for “nm. The minimum inhibitory concentration (MIC) was defined as 50% growth inhibition of the microorganism as this measurement best represented the antifungal activity of the compounds. Standard errors were typically below 5%.”
# Saccharomyces cerevisiae = assay: Fungal growth inhibition, S. cerevisiae (library hits, Table A); assay type: cell-based; conditions: MIC defined as 50% growth inhibition, n = 3, baker's yeast
# Procedure: as §2
# as §1, with “Cg003 is a clinical isolate, characterized to be resistant to fluconazole and itraconazole due to overexpression of the multidrug resistance efflux pumps Cdr1p and Cdr2p.” left out, “nm.” for “nm. The minimum inhibitory concentration (MIC) was defined as 50% growth inhibition of the microorganism as this measurement best represented the antifungal activity of the compounds. Standard errors were typically below 5%.”
# [5] = target: T1, Saccharomyces cerevisiae Pma1 (Saccharomyces cerevisiae, UniProt P05030); assay: ATP hydrolysis inhibition, S. cerevisiae Pma1; assay type: biochemical; conditions: ATP hydrolysis IC50 Saccharomyces cerevisiae Pma1, library hit compounds, n = 3
# T1 construct: containing the full-length cDNA of the S. cerevisiae plasma membrane H^+-ATPase isoform PMA1; made in house; host or cells: Saccharomyces cerevisiae RS72
# T1 sequence (P05030 whole entry, canonical isoform): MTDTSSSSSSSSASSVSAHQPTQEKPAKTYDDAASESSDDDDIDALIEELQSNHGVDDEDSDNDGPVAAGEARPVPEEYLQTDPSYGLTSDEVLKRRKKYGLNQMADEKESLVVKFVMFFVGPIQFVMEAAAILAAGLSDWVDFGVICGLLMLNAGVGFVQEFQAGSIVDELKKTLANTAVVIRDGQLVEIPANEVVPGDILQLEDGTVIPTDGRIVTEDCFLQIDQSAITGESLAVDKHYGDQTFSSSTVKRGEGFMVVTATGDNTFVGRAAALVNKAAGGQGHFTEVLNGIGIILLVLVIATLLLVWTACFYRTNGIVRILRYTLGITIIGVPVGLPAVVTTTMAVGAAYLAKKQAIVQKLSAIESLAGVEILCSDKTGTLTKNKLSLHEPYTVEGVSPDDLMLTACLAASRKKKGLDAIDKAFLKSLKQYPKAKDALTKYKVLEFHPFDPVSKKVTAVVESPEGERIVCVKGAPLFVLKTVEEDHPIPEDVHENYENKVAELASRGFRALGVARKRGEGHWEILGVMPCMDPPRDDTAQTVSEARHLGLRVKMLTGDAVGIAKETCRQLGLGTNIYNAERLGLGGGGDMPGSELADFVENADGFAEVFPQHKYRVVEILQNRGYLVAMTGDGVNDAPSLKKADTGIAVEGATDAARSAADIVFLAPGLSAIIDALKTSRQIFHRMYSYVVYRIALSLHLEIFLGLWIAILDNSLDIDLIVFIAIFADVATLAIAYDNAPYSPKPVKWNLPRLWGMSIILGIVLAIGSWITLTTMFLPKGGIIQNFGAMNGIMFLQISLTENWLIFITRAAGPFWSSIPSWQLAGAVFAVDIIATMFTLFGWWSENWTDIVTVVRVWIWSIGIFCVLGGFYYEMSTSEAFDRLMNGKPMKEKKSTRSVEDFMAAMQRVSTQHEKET
# Procedure: as §2, with “activity. […] Pma1 inhibitory hit compounds (IC50 <20 μM) with antifungal activity on both S. cerevisiae and C. albicans (MIC <100 μM) were re-purchased and re-evaluated to confirm the potency and identity of the compound.” for “activity.”
# Plasma membranes containing Pma1 were isolated from Saccharomyces cerevisiae RS72 cells containing the full-length cDNA of the S. cerevisiae plasma membrane H^+-ATPase isoform PMA1 under control of the PMA1 promoter as described.
# ATPase activity was determined by measuring the amount of liberated phosphate from ATP hydrolysis. The ATPase assay was performed in 96 well plates in a final reaction volume of 60 μL. 0.1–0.2 μg/well of DOC extracted SERCA membrane or the Na^+,K^+-ATPase was used, while 1–2.5 μg/well was used of the Pma1 membrane preparation. Reactions, including protein membrane preparation and various concentrations of exogenously added compounds, were conducted in the following buffers; Pma1 buffer: 17.5 mM MOPS-NaOH pH 7, 7 mM MgSO4, 44 mM KNO3 (vacuolar ATPase inhibitor), 22 mM NaN3 (mitochondrial ATPase inhibitor), 0.22 mM Na2MoO4 (acid phosphatase inhibitor); SERCA buffer: 9 mM MOPS-NaOH pH 7, 2.7 mM MgCl2, 0.1 mM CaCl2 and 72 mM KCl. Na^+,K^+-ATPase buffer: 30 mM MOPS-NaOH pH 7, 40 mM NaCl, 4 mM MgCl2 and 20 mM KCl. Reactions were initiated by the addition of Na-ATP to a final concentration of 2.5 mM (Pma1 and Na^+,K^+-ATPase) or 5 mM (SERCA), followed by 30 minutes incubation at 30°C. […] Absorption was measured at 860 nm after additional 30 minutes incubation at RT.
Compound,MIC [1],MIC (Candida glabrata Cg003),EC50 (HepG2 cells),"EC50 (HepG2 cells; Homo sapiens, HepG2, 72 h)",Fungicidal or fungistatic activity in time-kill (in words) [2],MIC (Candida albicans SC5314),MIC (Candida krusei ATCC 6258),Post-antifungal effect (PAFE) (C. albicans cells),MIC [3],Effect on enhanced calcium release from the endoplasmic reticulum (in words) [4],MIC (Candida albicans),MIC (Saccharomyces cerevisiae),IC50 [5],EC50 (HepG2 cells; Homo sapiens)
"C[C@@H]1[C@H](O)[C@@H](C)/C=C/C=C/C=C/C=C/C=C/C=C/C=C/[C@H](O[C@@H]2O[C@H](C)[C@@H](O)[C@H](N)[C@@H]2O)C[C@@H]2O[C@](O)(C[C@@H](O)C[C@@H](O)[C@H](O)CC[C@@H](O)C[C@@H](O)CC(=O)O[C@H]1C)C[C@H](O)[C@H]2C(=O)O [AMB, amphotericin B, reference compound]",0.1 ± 0.04 µM,0.18 ± 0.08 µM,0.69 ± 0.01 µM,< 1 µM,fungicidal after 3 h exposure,0.1 ± 0.04 µM,0.44 ± 0.34 µM,7 h,0.02 ± 0.01 µM,,,,,
Brc1ccc2[nH]c3c(c2c1)CCCC3NCCc1ccccc1 (stereo not shown) [Compound 1],,,,,,,,,,reduce the enhanced calcium release,20 µM,10 µM,18.2 ± 4.7 µM,
Brc1ccc2[nH]c3c(c2c1)CCCC3NCc1ccccc1 (stereo not shown) [Compound 2],,,,,,,,,,reduce the enhanced calcium release,10 µM,12 µM,12.9 ± 3.2 µM,
Cc1ccc2[nH]c3c(c2c1)CCCC3NCc1ccc(Cl)cc1 (stereo not shown) [Compound 3],,,,,,,,,,,5 µM,12 µM,14.8 ± 3.5 µM,
"OC(Cn1cncn1)(Cn1cncn1)c1ccc(F)cc1F [FLC, fluconazole, reference compound]",26.1 µM,> 208 µM,,,,0.75 ± 0.48 µM,67.2 ± 27 µM,,20.7 ± 8.68 µM,,,,,> 50 µM
"C[C@@H](c1ncncc1F)[C@](O)(Cn1cncn1)c1ccc(F)cc1F [VRC, voriconazole, reference compound]",0.61 ± 0.28 µM,6.11 ± 2.64 µM,,,fungistatic activity after both 3 and 24 h of incubation,0.03 ± 0.02 µM,1.02 ± 0.7 µM,no significant delay in growth,0.27 ± 0.19 µM,,,,,> 50 µM
